Results: patent publication US20130012434A1, “NOVEL SPIRO IMIDAZOLONES AS GLUCAGON RECEPTOR ANTAGONISTS, COMPOSITIONS, AND METHODS FOR THEIR USE” (priority 2010, published 2013)

Target: T1, recombinant human glucagon receptor (Homo sapiens, UniProt P47871)
T1 construct: expressed in transfected cells; host or cells: CHO cells
Assay: Inhibition of glucagon-stimulated intracellular cAMP assay
Format: cell-based
Settings: CHO cells expressing recombinant human glucagon receptor, stimulated with 300 pM glucagon, LANCE cAMP kit
Procedure: Inhibition of Glucagon-Stimulated Intracellular cAMP Assay
Chinese hamster ovary (CHO) cells expressing the recombinant human glucagon receptor were harvested with the aid of non-enzymatic cell dissociation solution (GIBCO 13151-014). The cells were then pelleted and suspended in the stimulation buffer (1×HBSS, 5 mM Hepes, 0.1% BSA, pH7.4 in presence of complete protease inhibitor and phosphodiesterase inhibitor). The adenylate cyclase assay was conducted following the LANCE cAMP Kit (Perkin Elmer, AD0262) instructions. Briefly, cells were preincubated with anti-cAMP antibody in the stimulation buffer with a final concentration of 3% DMSO for 30 minutes and then stimulated with 300 pM glucagon for 45 minutes. The reaction was stopped by incubating with the detection buffer containing Europium chelate of the Eu-SA/Biotin-cAMP tracer for 20 hours. The fluorescence intensity emitted from the assay was measured at 665 nm using PheraStar instruments. […] Standard cAMP concentrations were conducted concurrently for conversion of fluorescence signal to cAMP level. Data was analyzed using GraphPad Prism. IC50 values were calculated using non-linear regression analysis assuming single site competition. […] Some of the compounds of the invention shown in the examples measured less than about 5 μM in this assay; other examples measured less than about 500 nM; others less than about 100 nM. […]

T1 sequence (P47871 26-477): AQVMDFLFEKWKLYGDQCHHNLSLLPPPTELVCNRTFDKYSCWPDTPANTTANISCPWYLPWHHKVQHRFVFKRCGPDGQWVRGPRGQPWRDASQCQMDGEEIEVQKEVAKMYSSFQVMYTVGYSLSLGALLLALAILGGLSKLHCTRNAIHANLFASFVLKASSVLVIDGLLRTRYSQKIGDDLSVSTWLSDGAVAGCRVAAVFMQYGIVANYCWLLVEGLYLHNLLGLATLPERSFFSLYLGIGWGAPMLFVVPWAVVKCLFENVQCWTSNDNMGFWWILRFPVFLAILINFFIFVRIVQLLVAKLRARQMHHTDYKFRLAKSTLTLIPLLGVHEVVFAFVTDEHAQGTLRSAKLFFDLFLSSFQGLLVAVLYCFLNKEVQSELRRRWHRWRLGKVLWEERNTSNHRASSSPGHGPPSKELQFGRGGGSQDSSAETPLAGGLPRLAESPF

Compound | IC50 [nM]
CC(C)(C)CC[C@H](c1ccc(C(=O)NCCC(=O)O)cc1)N1C(=O)C(c2cccc(F)c2)=NC12CCC([Si](C)(C)C)CC2 (some centres unmarked) [Example 5.26] | 61
CC(C)(C)CCOc1cccc(C2=NC3(CCC(C(C)(C)C)CC3)N([C@H](CCC(C)(C)C)c3ccc(C(=O)NCc4nn[nH]n4)cc3)C2=O)c1 (some centres unmarked) [Example 5.69] | 22
